Results on 14 compounds are retold here after US20250186391A1, “ORAL COMPLEMENT FACTOR D INHIBITORS” (BioCryst Pharmaceuticals, Inc., priority 2019, published 2025).

In general, IC50 refers to the midpoint of a concentration-inhibition curve.

SMILES strings stand for the structures.

The target of the test is Factor D (Homo sapiens (Human), UniProt P00746). Briefly: Factor D esterolytic assay. It counts as biochemical. Particulars: Z-Lys-SBzl substrate, 100 mM HEPES, 500 mM NaCl, pH 7.5, 10% DMSO; tested a minimum of three times; read-out: Measured Ki (IC50) Value for Compounds: IC50. An outline of the steps: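 Chromogenic thioesterase read-out: Z-Lys-SBzl (1.29 mM) hydrolysis by human Factor D, thiol detected with DTNB at 405 nm (690 nm background subtracted) for 600 s. Run in 100 mM HEPES, 500 mM NaCl, pH 7.5, 10% DMSO, substrate added immediately or after room-temperature preincubation. IC50 from percent inhibition versus enzyme alone, n≥3.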
Sequence of Factor D (P00746 26-253): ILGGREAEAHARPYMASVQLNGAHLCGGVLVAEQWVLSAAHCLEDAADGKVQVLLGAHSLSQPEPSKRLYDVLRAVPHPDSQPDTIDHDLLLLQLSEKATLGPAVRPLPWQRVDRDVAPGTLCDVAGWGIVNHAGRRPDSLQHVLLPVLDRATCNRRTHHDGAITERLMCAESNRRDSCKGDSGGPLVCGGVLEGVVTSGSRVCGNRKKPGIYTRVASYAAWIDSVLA
`NCc1cccc(-c2ccc3oc(C(O)C(F)(F)F)c(COc4ccccc4CC(=O)O)c3c2)c1` (centres unmarked) [Compound 140c, 2-(2-((5-(3-(aminomethyl)phenyl)-2-(2,2,2-trifluoro-1-hydroxyethyl)benzofuran-3-yl)methoxy)phenyl)acetic acid]: the IC50 was below 1000 nM. Take `NCc1cccc(-c2cc(Cn3ccnc3)c3occ(COc4ccccc4CC(=O)O)c3c2)c1` [Compound 155e, 2-(2-((7-((1H-imidazol-1-yl)methyl)-5-(3-(aminomethyl)phenyl)benzofuran-3-yl)methoxy)phenyl)acetic acid]: the IC50 is below 1000 nM. Turning to `CNc1cc(-c2cccc(CN)c2)cc2c(COc3cc(OC)ccc3CC(=O)O)coc12` [Compound 280c, 2-(2-((5-(3-(aminomethyl)phenyl)-7-(methylamino)benzofuran-3-yl)methoxy)-4-methoxyphenyl)acetic acid], the IC50 was below 1000 nM. Take `COc1ccc(OCc2coc3ccc(-c4cccc(CN)c4)cc23)c(CC(=O)O)c1` [Compound 106c, 2-(2-((5-(3-(aminomethyl)phenyl)benzofuran-3-yl)methoxy)-5-methoxyphenyl)acetic acid]: the IC50 was below 1000 nM. In the case of `Cc1ccccc1-c1cc(-c2cccc(CN)c2)cc2c(COc3ccccc3CC(=O)O)coc12` [Compound 223c, 2-(2-((5-(3-(aminomethyl)phenyl)-7-(o-tolyl)benzofuran-3-yl)methoxy)phenyl)acetic acid], the IC50 is below 1000 nM. Regarding `NCc1cccc(-c2ccc3occ(COc4ccccc4CC(=O)O)c3c2)c1` [Compound 9e, 2-(2-((5-(3-(aminomethyl)phenyl)benzofuran-3-yl)methoxy)phenyl)acetic acid], the IC50 was below 1000 nM.

As to `CN1CCN(Cc2ccc(-c3cc(-c4cccc(CN)c4)cc4c(COc5ccccc5CC(=O)O)coc34)cc2)CC1` [Compound 116d, 2-(2-((5-(3-(aminomethyl)phenyl)-7-(4-((4-methylpiperazin-1-yl)methyl)phenyl)benzofuran-3-yl)methoxy)phenyl)acetic acid], the IC50 is below 1000 nM. As for `NCc1cccc(-c2ccc3c(c2)c(COc2ccccc2CC(=O)O)nn3C2CCCCC2)c1` [Compound 259c, 2-(2-((5-(3-(aminomethyl)phenyl)-1-cyclohexyl-1H-indazol-3-yl)methoxy)phenyl)acetic acid], the IC50 was below 1000 nM. Turning to `NCc1cccc(-c2ccc3c(c2)c(COc2ccccc2CC(=O)O)nn3CC2CC2)c1` [Compound 258f, 2-(2-((5-(3-(aminomethyl)phenyl)-1-(cyclopropylmethyl)-1H-indazol-3-yl)methoxy)phenyl)acetic acid], the IC50 was below 1000 nM. For the compound `COc1ccc(CC(=O)O)c(OCc2coc3ccc(-c4cccc(CN)c4F)cc23)c1` [Compound 6e, 2-(2-((5-(3-(aminomethyl)-2-fluorophenyl)benzofuran-3-yl)methoxy)-4-methoxyphenyl)acetic acid], the concentration for half-maximal inhibition (IC50) was below 1000 nM. Consider `COc1cc(-c2cccc(CN)c2)cc2c(COc3cc(C(F)(F)F)ccc3CC(=O)O)coc12` [Compound 269c, 2-(2-((5-(3-(aminomethyl)phenyl)-7-methoxybenzofuran-3-yl)methoxy)-4-(trifluoromethyl)phenyl)acetic acid], for which the IC50 is below 1000 nM. For `NCc1cccc(-c2ccc3occ(COc4cc(C(=O)O)ccc4CC(=O)O)c3c2)c1` [Compound 158d, 3-((5-(3-(aminomethyl)phenyl)benzofuran-3-yl)methoxy)-4-(carboxymethyl)benzoic acid] the value was below 1000 nM; for `CC(C)(C)OC(=O)n1cc(Cc2cccc(CC(=O)O)c2O)c2cc(-c3cccc(CN)c3)ccc21` [Compound 75e, 2-(3-((5-(3-(aminomethyl)phenyl)-1-(tert-butoxycarbonyl)-1H-indol-3-yl)methyl)-2-hydroxyphenyl)acetic acid], above 10000 nM. As for `CC(C)(C)c1oc2ccc(-c3cccc(CN)c3)cc2c1COc1cc(F)ccc1CC(=O)O` [Compound 173c, 2-(2-((5-(3-(aminomethyl)phenyl)-2-(tert-butyl)benzofuran-3-yl)methoxy)-4-fluorophenyl)acetic acid], the figure is below 1000 nM.
